Data reported in patent US7709636B2, “Pyrazole sulfonylurea compound and herbicide” (Nissan Chemical Industries, Ltd., priority 2004, dated 2010).

Key:
[1] = system: transplanted rice (Oryza sativa); assay: Crop injury test on rice in water leakage condition; type: in vivo; details: 0.15 g/a; water leakage 2 cm/day x 3 days; treated on third day after transplantation; 3 weeks after treatment
Experimental: Crop Injury Test on Rice in Water Leakage Condition A mixed soil of alluvial soil and diluvial soil was placed in a plastic pot perforated at the bottom of 1/10000 are, water was poured therein and mixed, and then rice seedlings at 2.5th leaf stage were transplanted. Water leakage treatment was carried out by placing the pot in a plastic vat, and controlling the amount of water in the vat kept at a condition of 2 cm/day×3 days. The pot was put in a green house at 25 to 30° C., on third day after transplantation, the wettable powder of the present invention prepared according to Formulation Example 1 was diluted with water so as to give a predetermined formulation amount, and the surface of the water was treated with the diluted wettable powder. The crop injury on rice was investigated 3 weeks after treatment with the herbicide according to the criteria indicated in Test Example 1.

[2] = system: Echinochloa crus-galli; assay: Herbicidal effect test in submerged condition by treatment during weed-growth stage (1); type: in vivo; details: 0.64 g/a, treated at 1st to 2nd leaf stage, 3 weeks after treatment
How it was run: (§1)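 Paddy-soil pots flooded to 4 cm water depth were sown and grown in a greenhouse at 25 to 30° C until weeds reached 1st to 2nd leaf stage. A wettable powder diluted in water to a predetermined formulation amount was applied to the water surface. Herbicidal effect was scored 3 weeks after treatment against set criteria.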

[3] = system: Monochoria vaginalis; assay: as above; type: in vivo; details: 0.64 g/a, treated at 1st to 2nd leaf stage, 3 weeks after treatment
How it was run: as §1

[4] = system: Scirpus juncoides; assay: as above; type: in vivo; details: 0.64 g/a, treated at 1st to 2nd leaf stage, 3 weeks after treatment
How it was run: as §1

[5] = system: Echinochloa crus-galli; assay: Herbicidal effect test in submerged condition by treatment before weed-generation (1); type: in vivo; details: 0.64 g/a, water surface treated on day of sowing, 3 weeks after treatment
How it was run: (§2)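 Steps: flood alluvial soil to 4 cm; sow weed seeds; transplant 2.5-leaf rice seedlings; same day treat water surface with water-diluted wettable powder at set formulation amount; keep in greenhouse at 25 to 30° C; score injury on 0–5 scale at 3 weeks.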

[6] = system: Monochoria vaginalis; assay: as above; type: in vivo; details: 0.64 g/a, water surface treated on day of sowing, 3 weeks after treatment
How it was run: as §2

[7] = system: Scirpus juncoides; assay: as above; type: in vivo; details: 0.64 g/a, water surface treated on day of sowing, 3 weeks after treatment
How it was run: as §2

[8] = system: direct sown rice; assay: Herbicidal effect test by soil treatment; type: in vivo, Oryza sativa; details: 1.6 g/a, 3 weeks after treatment
How it was run: (§3)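 Sow seed in sterilized diluvial soil; cover with about 1.5 cm soil; spray surface uniformly with wettable powder diluted in water to the predetermined amount; rate herbicidal effect after 3 weeks.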

[9] = system: soybean (Glycine max); assay: Herbicidal effect test by soil treatment; type: in vivo; details: 1.6 g/a, 3 weeks after treatment
How it was run: as §3

[10] = system: Ambrosia elatior; assay: Herbicidal effect test by soil treatment; type: in vivo; details: 1.6 g/a, 3 weeks after treatment
How it was run: as §3

[11] = system: Black-grass; assay: Herbicidal effect test by soil treatment; type: in vivo; details: 1.6 g/a, 3 weeks after treatment
How it was run: as §3

[12] = system: Avena fatua; assay: Herbicidal effect test by soil treatment; type: in vivo; details: 1.6 g/a, 3 weeks after treatment
How it was run: as §3

[13] = system: Triticum aestivum (wheat); assay: Herbicidal effect test by soil treatment; type: in vivo; details: 1.6 g/a, 3 weeks after treatment
How it was run: as §3

[14] = system: Digitaria adscendes; assay: Herbicidal effect test by soil treatment; type: in vivo; details: 1.6 g/a, 3 weeks after treatment
How it was run: as §3

[15] = system: Stellaria media; assay: Herbicidal effect test by soil treatment; type: in vivo; details: 1.6 g/a, 3 weeks after treatment
How it was run: as §3

[16] = system: Echinochloa crus-galli; assay: Herbicidal effect test by soil treatment; type: in vivo; details: 1.6 g/a, 3 weeks after treatment
How it was run: as §3

[17] = system: Setaria viridis; assay: Herbicidal effect test by soil treatment; type: in vivo; details: 1.6 g/a, 3 weeks after treatment
How it was run: as §3

[18] = system: Amaranthus retroflexus; assay: Herbicidal effect test by soil treatment; type: in vivo; details: 1.6 g/a, 3 weeks after treatment
How it was run: as §3

[19] = system: corn (Zea mays); assay: Herbicidal effect test by soil treatment; type: in vivo; details: 1.6 g/a, 3 weeks after treatment
How it was run: as §3

[20] = system: Polygonum blumei; assay: Herbicidal effect test by soil treatment; type: in vivo; details: 1.6 g/a, 3 weeks after treatment
How it was run: as §3

[21] = system: Beta vulgaris (beet); assay: Herbicidal effect test by soil treatment; type: in vivo; details: 1.6 g/a, 3 weeks after treatment
How it was run: as §3

[22] = system: Abutilon avicennae; assay: Herbicidal effect test by soil treatment; type: in vivo; details: 1.6 g/a, 3 weeks after treatment
How it was run: as §3

[23] = system: Chenopodium album; assay: Herbicidal effect test by soil treatment; type: in vivo; details: 1.6 g/a, 3 weeks after treatment
How it was run: as §3

COc1cc(OC)nc(NC(=O)NS(=O)(=O)c2c(C3=NOCC(C)O3)c(Cl)nn2C)n1 (centres unmarked) [Compound 1, N-((4,6-dimethoxypyrimidin-2-yl)aminocarbonyl)-3-chloro-1-methyl-4-(5-methyl-5H,6H-1,4,2-dioxadin-3-yl)pyrazole-5-sulfonamide]
crop injury on rice, a: transplanted rice (Oryza sativa) [1]: 0 (Herbicidal rate 5% or less (little effect)) | herbicidal effect, A: Echinochloa crus-galli [2]: 5 (Herbicidal rate 90% or more (almost complete death)) | herbicidal effect, C: Monochoria vaginalis [3]: 5 (Herbicidal rate 90% or more (almost complete death)) | herbicidal effect, B: Scirpus juncoides [4]: 5 (Herbicidal rate 90% or more (almost complete death)) | herbicidal effect, A: Echinochloa crus-galli [5]: 5 (Herbicidal rate 90% or more (almost complete death)) | herbicidal effect, C: Monochoria vaginalis [6]: 5 (Herbicidal rate 90% or more (almost complete death)) | herbicidal effect, B: Scirpus juncoides [7]: 5 (Herbicidal rate 90% or more (almost complete death)) | herbicidal effect, d: direct sown rice [8]: 2 (Herbicidal rate 20% or more and less than 40%) | herbicidal effect, c: soybean (Glycine max) [9]: 5 (Herbicidal rate 90% or more (almost complete death)) | herbicidal effect, I: Ambrosia elatior [10]: 5 (Herbicidal rate 90% or more (almost complete death)) | herbicidal effect, G: Black-grass [11]: 4 (Herbicidal rate 70% or more and less than 90%) | herbicidal effect, F: Avena fatua [12]: 0 (Herbicidal rate 5% or less (little effect)) | herbicidal effect, e: Triticum aestivum (wheat) [13]: 5 (Herbicidal rate 90% or more (almost complete death)) | herbicidal effect, D: Digitaria adscendes [14]: 4 (Herbicidal rate 70% or more and less than 90%) | herbicidal effect, M: Stellaria media [15]: 5 (Herbicidal rate 90% or more (almost complete death)) | herbicidal effect, A: Echinochloa crus-galli [16]: 2 (Herbicidal rate 20% or more and less than 40%) | herbicidal effect, E: Setaria viridis [17]: 1 (Herbicidal rate 5% or more and less than 20%) | herbicidal effect, J: Amaranthus retroflexus [18]: 5 (Herbicidal rate 90% or more (almost complete death)) | herbicidal effect, b: corn (Zea mays) [19]: 5 (Herbicidal rate 90% or more (almost complete death)) | herbicidal effect, L: Polygonum blumei [20]: 5 (Herbicidal rate 90% or more (almost complete death)) | herbicidal effect, f: Beta vulgaris (beet) [21]: 5 (Herbicidal rate 90% or more (almost complete death)) | herbicidal effect, H: Abutilon avicennae [22]: 4 (Herbicidal rate 70% or more and less than 90%) | herbicidal effect, K: Chenopodium album [23]: 5 (Herbicidal rate 90% or more (almost complete death))
